The record followed here is patent US20240360151A1 (SANOFI, priority 2023, published 2024).

The target in assay [1] is T1, NLRP3 inflammasome (Homo sapiens, UniProt Q96P20).
T1 construct: endogenous in cells; host or cells: THP-1 monocytic cells
The experiment in a line: IL-1β secretion assay (NLRP3 IC50) in LPS-primed, nigericin-activated THP-1 cells, HTRF. In kind it is cell-based. The following applies: monocytic THP-1 cells; LPS 10 ng/mL 3 h priming, then compound + nigericin 10 μM 2 h; relative IC50, 10 concentrations, geometric mean. In a few lines:
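THP-1 cells primed with LPS 10 ng/mL for 3 h at 37° C., then compound (10-point 1:3 dilution, 0.1% DMSO) added with 10 μM nigericin for 2 h. Supernatant IL-1β measured by HTRF; relative IC50 from a 4-parameter logistic fit, reported as geometric mean.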
For orientation: In TR-FRET formats the signal depends on donor and acceptor labels being close together.

Assay [2] concerns NF-kB pathway (TNF-α secretion by THP-1 cells). The experiment in a line: TNF-α secretion assay in LPS-stimulated THP-1 cells, Lumit immunoassay. In kind it is cell-based, human. The following applies: monocytic THP-1 cells, LPS 10 ng/mL, relative IC50, 10 concentrations, geometric mean. On the procedure:
Monocytic THP-1 cells were maintained in RPMI 1640 media (Gibco 21875)+10% FBS, (Gibco 10500)+1% penicillin/streptomycin (Gibco 15140-122). Cells were then plated at 40,000 cells per well in 384-well cell culture plates (Corning 3542) and maintained with RPMI1640 (Gibco 11835)+5% FBS, (Gibco 10500). Experimental compounds were prepared and added as described above. TNF-α secretion was triggered by the addition of 10 ng/mL LPS (invivoGen, tlrl-3pelps) and cells were incubated for 3 hours. TNF-α levels were monitored directly in the cells plate using an Lumit assay (Lumit TNFa-Human Immunoassay—Promega W6051) according to manufacturers' instructions.
Data were expressed as percentage of inhibition (I %) as compared to a maximum signal control containing no small molecule (I %=0%) according to the formula: 1%=(1−((Sample−Min))/((Max−Min)))×100, where: • Sample: Signal obtained in the presence of each compound tested, • Max: Maximum signal in the absence of compound added, • Min: Minimum or background signal obtained in the absence of activation signal.
Relative IC50 (IC50 rel) were obtained from a dose response curve with 10 concentrations. Final IC50 rels are expressed as the geometric mean.
Relative IC50 values were estimated with Biost@t-SPEED v2.4 internal software based on SAS system using the 4-parameter logistic model according to Ratkovsky and Reedy (D. A. Ratkovsky, T. J. Reedy, Choosing near-linear parameters in the four parameters logistic model radioligands and related assays. Biometrics, 42 (1986), 575-582): Y=A+C/((1+exp(−B*(log(X)−M)))), where: • A: Lower asymptote (BOTTOM), • A+C: Upper asymptote (TOP), • M: the logarithm of the concentration estimated at the inflexion point (the logarithm of the relative IC50), • B: Slope at the inflexion point of the curve.

T1 sequence (Q96P20 whole entry): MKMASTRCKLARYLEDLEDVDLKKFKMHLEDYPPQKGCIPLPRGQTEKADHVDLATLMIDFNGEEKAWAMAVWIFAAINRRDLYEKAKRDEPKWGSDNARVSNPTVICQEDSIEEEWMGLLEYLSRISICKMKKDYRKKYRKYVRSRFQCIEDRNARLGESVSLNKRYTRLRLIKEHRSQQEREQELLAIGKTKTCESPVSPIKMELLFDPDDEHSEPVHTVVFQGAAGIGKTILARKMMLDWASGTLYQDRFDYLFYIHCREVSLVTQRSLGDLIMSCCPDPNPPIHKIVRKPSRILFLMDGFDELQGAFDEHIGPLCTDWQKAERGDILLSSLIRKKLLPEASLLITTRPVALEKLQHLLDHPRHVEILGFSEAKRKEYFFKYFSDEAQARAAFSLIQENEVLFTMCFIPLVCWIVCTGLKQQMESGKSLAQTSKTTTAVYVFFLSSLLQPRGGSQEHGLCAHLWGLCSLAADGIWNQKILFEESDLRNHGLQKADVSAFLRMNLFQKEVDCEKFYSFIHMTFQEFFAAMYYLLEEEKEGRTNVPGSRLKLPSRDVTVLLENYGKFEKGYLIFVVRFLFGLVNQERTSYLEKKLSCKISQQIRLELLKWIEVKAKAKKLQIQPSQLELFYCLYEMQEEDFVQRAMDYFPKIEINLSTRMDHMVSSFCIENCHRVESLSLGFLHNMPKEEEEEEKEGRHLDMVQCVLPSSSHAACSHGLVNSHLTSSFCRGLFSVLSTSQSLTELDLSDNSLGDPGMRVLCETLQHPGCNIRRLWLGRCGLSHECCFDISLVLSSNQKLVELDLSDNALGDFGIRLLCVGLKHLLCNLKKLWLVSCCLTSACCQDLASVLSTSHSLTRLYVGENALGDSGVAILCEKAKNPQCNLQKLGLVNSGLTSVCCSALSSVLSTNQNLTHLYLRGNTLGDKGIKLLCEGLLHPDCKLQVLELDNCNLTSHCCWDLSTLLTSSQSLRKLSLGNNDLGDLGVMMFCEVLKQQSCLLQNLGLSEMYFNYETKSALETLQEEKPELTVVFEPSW

On to `Cc1cc(C(F)(F)F)cc(O)c1-c1ccc(N2CCO[C@H]3CCNC[C@H]32)nn1` (single isomer, unassigned) [Example 251], for which the IC50 in assay [1] was 0.021 µM; in assay [2] (Homo sapiens, THP-1, 3 h), above 10 µM.

`NC1(C2CCCN(c3ccc(-c4c(O)cc(Cl)cc4Cl)nn3)C2)CC1` (stereo not shown) [Example 17, 2-[6-[3-(1-aminocyclopropyl)-1-piperidyl]pyridazin-3-yl]-3,5-dichloro-phenol]: the IC50 in assay [1] was 0.473 µM; in assay [2] (Homo sapiens, THP-1, 3 h), above 10 µM.

`NC[C@@H]1CCN(c2ccc(-c3c(O)cc(Cl)cc3Cl)nn2)C1` [Example 23, 2-[6-[(3S)-3-(aminomethyl)pyrrolidin-1-yl]pyridazin-3-yl]-3,5-dichloro-phenol]: the IC50 was 0.192 µM in assay [1] and above 10 µM in assay [2] (Homo sapiens, THP-1, 3 h).

For the compound `Cc1cc(C(F)(F)F)cc(O)c1-c1ccc(N2CCOC(C(C)(C)O)C2)nn1` (stereo not shown) [Example 26, 2-[6-[2-(1-hydroxy-1-methyl-ethyl)morpholin-4-yl]pyridazin-3-yl]-3-methyl-5-(trifluoromethyl)phenol], the IC50 in assay [1] was 0.352 µM; in assay [2] (Homo sapiens, THP-1, 3 h), above 10 µM.

For `[2H]C([2H])(O)[C@@H]1CN(c2ccc(-c3c(C)cc(C)cc3O)nn2)CCO1` [Example 165, 2-[6-[(2S)-2-[dideuterio(hydroxy)methyl]morpholin-4-yl]pyridazin-3-yl]-3,5-dimethylphenol], the IC50 in assay [1] is 0.042 µM; in assay [2] (Homo sapiens, THP-1, 3 h), 5.62 µM.

For `Cc1cc(C)c(-c2ccc(N3CC[C@@H](CO)C3=O)nn2)c(O)c1` (single isomer, unassigned) [Example 140], the IC50 in assay [1] was 0.21 µM; in assay [2] (Homo sapiens, THP-1, 3 h), above 10 µM.

With `Cc1cc(C(F)(F)F)cc(O)c1-c1ccc(N2CC[C@H](CO)C2)nn1` [Example 20, 2-[6-[(3S)-3-(hydroxymethyl)pyrrolidin-1-yl]pyridazin-3-yl]-3-methyl-5-(trifluoromethyl)phenol], the IC50 in assay [1] was 0.044 µM; in assay [2] (Homo sapiens, THP-1, 3 h), above 10 µM.

Turning to `Cc1cc(C)c(-c2ccc(N3CCC[C@H](N)C3)nn2)c(O)c1` [Example 69, 2-[6-[(3S)-3-amino-1-piperidyl]pyridazin-3-yl]-3,5-dimethyl-phenol], the IC50 in assay [1] was 0.2 µM; in assay [2] (Homo sapiens, THP-1, 3 h) it was above 10 µM.

`Cc1cc(C)c(-c2ccc(N3CC[C@H](O)C3)nn2)c(O)c1` [Example 71, (3S)-1-[6-(2-hydroxy-4,6-dimethyl-phenyl)pyridazin-3-yl]pyrrolidin-3-ol]: the IC50 is 0.27 µM in assay [1] and above 10 µM in assay [2] (Homo sapiens, THP-1, 3 h).

As for `Cc1cc(C)c(-c2ccc(N3CCO[C@H](CCO)C3)nn2)c(O)c1` (single isomer, unassigned) [Example 233], the IC50 is 0.164 µM in assay [1] and above 10 µM in assay [2] (Homo sapiens, THP-1, 3 h).

As for `Cc1cc(C(F)(F)F)cc(O)c1-c1ccc(N2CCC[C@H](CO)C2)nn1` [Example 28, 2-[6-[(3S)-3-(hydroxymethyl)-1-piperidyl]pyridazin-3-yl]-3-methyl-5-(trifluoromethyl)phenol], the IC50 in assay [1] is 0.109 µM; in assay [2] (Homo sapiens, THP-1, 3 h), above 10 µM.

In the case of `Oc1cc(Cl)cc(Cl)c1-c1ccc(N2CCSCC2)nn1` [Example 203, 3,5-dichloro-2-(6-thiomorpholinopyridazin-3-yl)phenol], the IC50 in assay [1] is 0.332 µM; in assay [2] (Homo sapiens, THP-1, 3 h), 9.99 µM.

As to `Cc1cc(Cl)cc(O)c1-c1ccc(N2CCO[C@H]3CCNC[C@H]32)nn1` [Example 308, 2-[6-[(4aR,8aS)-2,3,4a,5,6,7,8,8a-octahydropyrido[4,3-b][1,4]oxazin-4-yl]pyridazin-3-yl]-5-chloro-3-methyl-phenol], the IC50 in assay [1] is 0.009 µM; in assay [2] (Homo sapiens, THP-1, 3 h) it was above 10 µM.

Regarding `Cc1ccc(F)c(O)c1-c1ccc(N2CCO[C@@H]3CCN(C)C[C@@H]32)nn1` [Example 353, 2-[6-[(4aS,8aR)-6-methyl-3,4a,5,7,8,8a-hexahydro-2H-pyrido[4,3-b][1,4]oxazin-4-yl]pyridazin-3-yl]-6-fluoro-3-methyl-phenol], the half-inhibitory concentration (IC50) in assay [1] is 0.029 µM; in assay [2] (Homo sapiens, THP-1, 3 h), above 10 µM.

In the case of `Cc1cc(C(F)(F)F)cc(O)c1-c1ccc(N2CCCC2=O)nn1` [Example 61, 1-[6-[2-hydroxy-6-methyl-4-(trifluoromethyl)phenyl]pyridazin-3-yl]pyrrolidin-2-one], the 50% inhibitory concentration (IC50) in assay [1] was 0.09 µM; in assay [2] (Homo sapiens, THP-1, 3 h), above 10 µM.

Turning to `CC(=O)NCCC1CN(c2ccc(-c3c(C)cc(C(F)(F)F)cc3O)nn2)CCO1` (single isomer, unassigned) [Example 278, N-[2-[4-[6-[2-hydroxy-6-methyl-4-(trifluoromethyl)phenyl]pyridazin-3-yl]morpholin-2-yl]ethyl]acetamide], the results for the IC50 in assay [1] and in assay [2] (3 hours) were 0.05 µM and above 10 µM, respectively.

Consider `Oc1cc(Cl)cc(Cl)c1-c1ccc(N2CCC3(CC(O)C3)C2)nn1` (stereo not shown) [Example 42, 6-[6-(2,4-dichloro-6-hydroxy-phenyl)pyridazin-3-yl]-6-azaspiro[3.4]octan-2-ol], for which the IC50 is 0.134 µM in assay [1] and above 10 µM in assay [2] (Homo sapiens, THP-1, 3 h).

Consider `Cc1cc(C)c(-c2ccc(N3CC[C@@H]4CCN(C)C[C@@H]43)nn2)c(O)c1` (single isomer, unassigned) [Example 384], for which the IC50 in assay [1] was 0.0004 µM; in assay [2] (Homo sapiens, THP-1, 3 h), above 10 µM.

Consider `CCc1cc(C)cc(O)c1-c1ccc(N2CCO[C@H](CO)C2)nn1` [Example 246, 3-ethyl-2-[6-[(2S)-2-(hydroxymethyl)morpholin-4-yl]pyridazin-3-yl]-5-methylphenol], for which the half-maximal inhibitory concentration (IC50) is 0.012 µM in assay [1] and above 10 µM in assay [2] (Homo sapiens, THP-1, 3 h).

As for `OC[C@@H]1CCCN(c2ccc(-c3c(O)cc(Cl)cc3Cl)nn2)C1` [Example 36, 3,5-dichloro-2-[6-[(3R)-3-(hydroxymethyl)-1-piperidyl]pyridazin-3-yl]phenol], the IC50 was 0.096 µM in assay [1] and above 10 µM in assay [2] (Homo sapiens, THP-1, 3 h).

For the compound `CN1CC[C@H]2CCN(c3ccc(-c4c(O)cccc4C(F)(F)F)nn3)[C@H]2C1` (single isomer, unassigned) [Example 427], the IC50 is 0.002 µM in assay [1] and above 10 µM in assay [2] (Homo sapiens, THP-1, 3 h).

With `Cc1cc(-c2c(C)cc(Cl)cc2O)nnc1N1CCO[C@H](CO)C1` [Example 133, 5-chloro-2-[6-[(2S)-2-(hydroxymethyl)morpholin-4-yl]-5-methyl-pyridazin-3-yl]-3-methyl-phenol], the half-inhibitory concentration (IC50) is 0.068 µM in assay [1] and above 10 µM in assay [2] (Homo sapiens, THP-1, 3 h).

On to `Cc1cc(N2CCO[C@H](CO)C2)nnc1-c1ccc2c(c1O)CCC2` [Example 324, 5-[6-[(2S)-2-(hydroxymethyl)morpholin-4-yl]-4-methyl-pyridazin-3-yl]indan-4-ol], for which the IC50 in assay [1] was 0.056 µM; in assay [2] (Homo sapiens, THP-1, 3 h), above 10 µM.

Turning to `Cc1cc(C)c(-c2ccc(N3CC[C@@H](O)C3)nn2)c(O)c1` [Example 70, (3R)-1-[6-(2-hydroxy-4,6-dimethyl-phenyl)pyridazin-3-yl]pyrrolidin-3-ol], the concentration for half-maximal inhibition (IC50) in assay [1] was 0.467 µM; in assay [2] (Homo sapiens, THP-1, 3 h), above 10 µM.

Consider `Cc1cc(Cl)cc(O)c1-c1ccc(N2CC[C@H](CO)C2)nn1` [Example 127, 5-chloro-2-[6-[(3S)-3-(hydroxymethyl)pyrrolidin-1-yl]pyridazin-3-yl]-3-methyl-phenol], for which the IC50 is 0.125 µM in assay [1] and above 10 µM in assay [2] (Homo sapiens, THP-1, 3 h).

As to `Cc1cc(C)c(-c2ccc(N3C[C@@H](CO)O[C@@H](CO)C3)nn2)c(O)c1` [Example 173, 2-[6-[(2R,6S)-2,6-bis(hydroxymethyl)morpholin-4-yl]pyridazin-3-yl]-3,5-dimethyl-phenol], the IC50 is 0.04 µM in assay [1] and above 10 µM in assay [2] (Homo sapiens, THP-1, 3 h).

With `Cc1cccc(O)c1-c1ccc(N2CC[C@@H]3CCN(C)C[C@@H]32)nn1` (racemic) [Example 385, 3-methyl-2-[6-[rac-(3aS,7aR)-6-methyl-3,3a,4,5,7,7a-hexahydro-2H-pyrrolo[2,3-c]pyridin-1-yl]pyridazin-3-yl]phenol], the IC50 in assay [1] was 0.002 µM; in assay [2] (Homo sapiens, THP-1, 3 h), above 10 µM.

On to `Oc1cc(Cl)cc(Cl)c1-c1ccc(N2CCC3(CC2)COC3)nn1` [Example 66, 3,5-dichloro-2-[6-(2-oxa-7-azaspiro[3.5]nonan-7-yl)pyridazin-3-yl]phenol], for which the IC50 in assay [1] is 0.304 µM; in assay [2] (Homo sapiens, THP-1, 3 h), above 10 µM.

Regarding `CC(=O)N1CC[C@H]2OCCN(c3cc(C)c(-c4ccc(C)cc4O)nn3)[C@H]2C1` [Example 431, 1-[(4aS,8aR)-4-[6-(2-hydroxy-4-methyl-phenyl)-5-methyl-pyridazin-3-yl]-3,4a,5,7,8,8a-hexahydro-2H-pyrido[4,3-b][1,4]oxazin-6-yl]ethanone], the IC50 in assay [1] is 0.062 µM; in assay [2] (Homo sapiens, THP-1, 3 h), above 10 µM.

A word on the IC50: it is the concentration at which inhibition is half-maximal.
